Test results taken from patent publication US10189862B2, “Phenothiazine-pyridine compounds and uses thereof” (The Chinese University of Hong Kong, priority 2016, dated 2019).
pIC50: −log10 of the molar value. Where two headings read alike, the source gives them in different places.

Experiments:
S. aureus = settings: 10 uM, 30 min drug-incubation, 60 J/cm^2; cited from earlier work
bacteria = settings: concentration of 10 uM; cited from earlier work
E. coli = settings: 10 uM, 30 min incubation, 24 J/cm^2; cited from earlier work
HT29 cell line [1] = test: Photocytotoxicity (PDT), MTT assay; format: cell-based; settings: Homo sapiens, HT-29, light or radiation study; HT29; 1 h incubation, 630 nm LED light 30 s, 3.2 J/cm^2, 24 h, MTT; read-out: IC50 PDT
Protocol: (§1) Cell lines and culture conditions: A549, HT29, MCF-7, MDA-MB-231 cell lines were maintained in RPMI1640 supplemented with fetal bovine serum (10%) and penicillin-streptomycin solution (1%), and WI38 cells were maintained in DMEM supplemented with fetal bovine serum (10%) and penicillin-streptomycin solution (1%). Approximately 1×10^4 (for A549, HT29, MCF-7, MDA-MB-231) or 1.5×10^4 (for WI38) cells per well were seeded in 96-well plate and incubated overnight light at 37° C. in a humidified atmosphere with 5% CO2.
Photocytotoxicity: Cells were incubated with different concentrations of photosensitive drug for 1 h in the dark, then the medium in the well was sucked by a syringe, and washed by PBS. Then a solution of new medium was added, and illuminated by light. After irradiation, the cells were incubated under dark at 37° C. for another 24 h, and the cell viabilities were determined by MTT assay.

HT29 cell line [2] = test: Dark toxicity, MTT assay; format: cell-based; settings: Homo sapiens, HT-29; HT29; 24 h under dark, MTT; read-out: IC50 DK
Protocol: as §1
Dark toxicity: Cells were incubated with different concentrations of photosensitive drug for 24 h in dark, and the cell viabilities were determined by MTT assay

HT29 cell line [3] = settings: 664 laser and 3 J/cm^2 light dose (2008); read-out: IC50 PDT, Stanley B. Brown reported value; cited from earlier work
HT29 cells = test: Intracellular ROS generation, DCFH-DA probe, flow cytometry; format: cell-based; settings: HT29, 0.5 uM, light irradiation; order 14≈23>8>18>15>24>>16>20>17≈19≈22>21>>MB
From the text: In order to further mimic the biological environment, we measured the intracellular reactive oxygen species (ROS) generation efficiency of these phenothiazine-pyridine compounds by flow cytometry. We employed HT29 cell line as cell model, and 2,7-dichlorofluorescin diacetate (DCFH-DA) as the intracellular ROS indicator, to determine the fluorescence intensity of 2,7-dichlorofluorescin (DCF), which was oxidized from DCFH-DA by ROS. The experiments were repeated for three times using DCFH-DA as control. For comparison, methylene blue was used as positive control. The data were analyzed by GraphPad Prism 6, the drug concentrations are all at 0.5 uM. […] In addition, the intracellular ROS generation efficiency is different from that measured in organic solvent, which may be attributed to the different cellular uptake amount for various compounds and the generation of some other ROS species other than ^1O2 in cells ([…] mechanism).

| Structure (SMILES) | log 10-reduction (S. aureus) | dark toxicity (bacteria) | log 10-reduction (E. coli) | pIC50 (HT29 cell line [1]) | pIC50 (HT29 cell line [2]) | pIC50 (HT29 cell line [3]) | intracellular ROS generation efficiency (HT29 cells) |
| --- | --- | --- | --- | --- | --- | --- | --- |
| CCCCN(CCCC)c1ccc2nc3ccc(=[N+](CCCC)CCCC)cc-3sc2c1.[Br-] [PPA904] | 4 log 10-reduction | obvious dark toxicity | 3 log 10-reduction |  |  |  |  |
| CN(C)c1ccc2nc3ccc(=[N+](C)C)cc-3sc2c1 [MB, methylene blue] |  | obvious dark toxicity | 0.5 log 10-reduction | 5.04 | < 5.00 | 4.05 | almost no ROS generation |
